From patent US20060165683A1, “Methods and compositions for control of bone formation via modulation of sympathetic tone” (priority 2001, published 2006)

Tests used:
[1] = tested on: murine primary osteoblasts; test: cAMP production in murine primary osteoblasts; type: cell-based, mouse; conditions: confluent cultures, 100 μM IBMX, 5 min treatment; PTH as positive control
Method: (§1) Primary osteoblast cultures were established as previously described (see, e.g., Ducy et al., 2000, Cell 100: 197-207) and maintained in αMEM/0.1 mg/ml ascorbic acid supplemented with 10% FBS. SaOS-2 were grown in MEM/10% FBS. For cAMP assay confluent cultures were incubated with serum free medium containing 100 μM IBMX (3-isobutyl-1-methylxanthine, Sigma) for 8 minutes before PBS, PTH(1-34) (Bachem), isoproterenol, norepinephrine, phenylephrine (Sigma) or propranolol were added for 5 min. Intracellular cAMP concentration was measured by immunoassay (R&D Systems). For gene expression analyses, primary osteoblasts were treated for 72 hours with appropriate drugs in 0.1% FBS. Hormone serum levels were quantified using immunoassays kits from Peninsula Laboratories (Insulin) or Alpco Diagnostics (leptin). Deoxypyridinoline cross-links and Creatinine were measured in morning urines using the Quidel kits. a1(I) leptin bioactivity was verified by cotransfection of 293 cells expressing ObRb with a STAT3-responsive-luc reporter construct, pSVβgal plasmid and a1(I) leptin expression vector or mock. Twenty-four hours later luciferase and β-galactosidase activities were measured. Data represents ratios of luciferase/β-galactosidase activities, and values are mean of 6 independent transfection experiments.
For a sympathetic regulation of bone formation to exist several requirements have to be fulfilled. The first one is that functional adrenergic receptors are present on osteoblasts. […] Immunohistochemical analysis of long bones from transgenic mice expressing LacZ under the control of the osteoblast-specific fragment of the a1(I) collagen promoter verified the presence of β2-adrenergic receptors on osteoblasts (FIG. 13B). No other adrenergic receptor subtype could be detected. […] Electron micrographs confirmed the presence of unmyelinated peripheral nerve axons coursing through the marrow adjacent to bone trabeculae and to osteoblasts (FIG. 13E). β-adrenergic receptors are G-coupled receptors that signal through the cAMP pathway (see, e.g., Benovic et al., 1988, Annu Rev Cell Biol 4:405-428). Thus, to assess the biologic relevance of the presence of β2-adrenergic receptors on osteoblasts, these cells were treated with isoproterenol, a β-adrenergic agonist, alone or in the presence of propranolol, a β-adrenergic receptor antagonist; with norepinephrine, the natural ligand of β-adrenergic receptors; with phenylephrine, an α-adrenergic agonist or with vehicle and measured cAMP production. As a positive control, parathyroid hormone (PTH) that binds to another G-coupled receptor present in osteoblasts was used (Gardella & Juppner, 2001, Trends Endocrinol Metab 12:210-217.). […] These effects were abolished by propranolol treatment. […]

[2] = tested on: human SaOS-2 osteoblastic cells; test: cAMP production in human SaOS-2 osteoblastic cells; type: cell-based; conditions: SaOS-2, 100 μM IBMX, 5 min treatment
Method: as §1
For a sympathetic regulation of bone formation to exist several requirements have to be fulfilled. The first one is that functional adrenergic receptors are present on osteoblasts. […] No other adrenergic receptor subtype could be detected. […] Thus, to assess the biologic relevance of the presence of β2-adrenergic receptors on osteoblasts, these cells were treated with isoproterenol, a β-adrenergic agonist, alone or in the presence of propranolol, a β-adrenergic receptor antagonist; with norepinephrine, the natural ligand of β-adrenergic receptors; with phenylephrine, an α-adrenergic agonist or with vehicle and measured cAMP production. […]

ob/ob mice [3] = test: ICV infusion of MTII in ob/ob mice; type: in vivo, mouse; conditions: ICV 125 ng/hr, 28 days
Method: (§2) Wildtype (C57BL/6J) and mutant (C57BL/6J A^y/a, C57BL/6J ob/ob) mice were obtained from the Jackson laboratory and adrenal medullectomized mice from Harlan Tecklad laboratory. Dbh−/− mice were rescued as previously described (Thomas et al., 1998, Neurochem 70:2468-2476). Isoproterenol (Sigma) was injected intraperitoneally (ip) once daily for 6 weeks at 30 mg/kg (wt) or 3 mg/kg (ob/ob). Propranolol (Sigma) was added to the drinking water at a concentration of 0.5 g/l. For ICV infusion, a 28-gauge cannula (Brain infusion kit II, Alza) was implanted into the third ventricle as previously described infusing human leptin (Sigma) at 8 ng/hr or MT-II at 125 ng/hr (Phoenix Pharmaceuticals) for 28 days (see, e.g., Ducy et al., 2000, Cell 100: 197-207). The cannula was connected to an osmotic pump (Alza) placed in the dorsal subcutaneous space of the animal. For parabiosis longitudinal incisions were made in the skin and in the peritoneal cavity along one side on each mouse. Edges of the incisions were connected by suture to induce coelioanastomosis. Cross-circulation was quantified by injecting 1 ml/kg 0.25% Evans blue into the tail vein of one mouse of the parabiosed pair. After 30 min. blood was collected from both mice by retroorbital bleeding and the blood exchange rate was calculated according to standard techniques (see, e.g., Harris & Martin, 1984, Am J Physiol 247:R380-386). […]

ovariectomized rat = conditions: cited from earlier work
bone marrow adipocytes = conditions: lumbar spine; cited from earlier work
C57BL/6J pups = test: MSG lesioning of the hypothalamus in mice; type: in vivo, mouse
Method: as §2

C57BL/6J mice = test: GTG lesioning of the hypothalamus in wt mice; type: in vivo, mouse
Method: Wildtype (C57BL/6J) and mutant (C57BL/6J A^y/a, C57BL/6J ob/ob) mice were obtained from the Jackson laboratory and adrenal medullectomized mice from Harlan Tecklad laboratory. Dbh−/− mice were rescued as previously described (Thomas et al., 1998, Neurochem 70:2468-2476). Isoproterenol (Sigma) was injected intraperitoneally (ip) once daily for 6 weeks at 30 mg/kg (wt) or 3 mg/kg (ob/ob). Propranolol (Sigma) was added to the drinking water at a concentration of 0.5 g/l. For ICV infusion, a 28-gauge cannula (Brain infusion kit II, Alza) was implanted into the third ventricle as previously described infusing human leptin (Sigma) at 8 ng/hr or MT-II at 125 ng/hr (Phoenix Pharmaceuticals) for 28 days (see, e.g., Ducy et al., 2000, Cell 100: 197-207). The cannula was connected to an osmotic pump (Alza) placed in the dorsal subcutaneous space of the animal. For parabiosis longitudinal incisions were made in the skin and in the peritoneal cavity along one side on each mouse. Edges of the incisions were connected by suture to induce coelioanastomosis. Cross-circulation was quantified by injecting 1 ml/kg 0.25% Evans blue into the tail vein of one mouse of the parabiosed pair. After 30 min. blood was collected from both mice by retroorbital bleeding and the blood exchange rate was calculated according to standard techniques (see, e.g., Harris & Martin, 1984, Am J Physiol 247:R380-386). […] Two weeks after parabiosis a pump delivering leptin ICV in one animal of each pair was implanted. For GTG lesioning, 4-week-old C57BL/6J mice were given a single ip injection of either PBS or GTG (0.5 mg/g). For MSG lesioning, 2 day-old C57BL/6J pups were injected daily subcutaneously with either PBS or MSG (2 mg/g) for 10 days.
Next, 4-week-old wt mice were treated with gold thioglucose (GTG), a compound that destroys neurons of the VMH and of the more dorso-lateral part of the ARC although it affects other neurons (see, e.g., Debons et al., 1962, Am J Physiol 4:743-750). […] As with ob/ob mice, this HBM was due to an increase in bone formation defined by an increase in the bone formation rate (FIG. 9E). […] These findings established that neurons sensitive to GTG are involved in the control of bone mass.

wild-type (wt) mice = test: 17 β-estradiol treatment of wild-type mice; type: in vivo, mouse
ob/ob mice [4] = test: 17 β-estradiol or testosterone treatment of hypogonadic ob/ob mice; type: in vivo, mouse
Description: Nevertheless, to address this point more thoroughly the hypogonadism of the ob/ob mice was exploited. Hypogonadism normally leads to an increase in osteoclasts number and in bone resorptive activity. […] On the other hand, if the osteoclasts of the ob/ob mice were not functioning properly, correcting their hypogonadism should not affect the severity of their high bone mass phenotype. To determine which of these two possibilities was correct, 17 β-estradiol or placebo pellets (Innovative Research of America) were implanted subcutaneously in 2-month-old female ob/ob mice to maintain a serum concentration of 250 pg/mL. These animals were analyzed after a 3-month treatment period.
Finally, the function of the osteoclasts of ob/ob and db/db mice was studied in vitro in an assay using hematopoietic progenitor cells from wild type, ob/ob, or db/db mice and growth factors known to induce the differentiation of these cells into functional osteoclasts. Mouse osteoclasts were generated in vitro according to protocols previously reported (Simonet et al., 1997, Cell 89, 309-319; Quinn et al., 1998, Endocrinology 139, 4424-4427). […] Medium was changed every other day. After 6 days of culture, cells were fixed in 3.7% formalin. Osteoclasts formed on plastic plates were stained for tartrate resistant acid phosphatase. Cells on dentin chips were removed by treatment with sodium hypochloride solution. Dentin chips were then stained with toluidine blue to visualize resorption pits.

[5] = tested on: primary osteoblasts isolated from wild-type mice; test: Leptin signaling in primary osteoblast cultures (Stat3 phosphorylation, immediate early genes, matrix synthesis and mineralization); type: cell-based, mouse
Method: Expression of leptin in osteoblasts was studied in subconfluent primary osteoblast cultures from wild-type mice which were maintained for 4 days in 10% FBS mineralization medium and then subsequently switched to 0.5% for 2 days and replaced daily. Medium was replaced 2 hours before a 20 min treatment with 80 ng/mL leptin (Sigma) or 40 ng/mL Oncostatin M (R&D Diagnostics) or vehicle. RNA extractions were performed using Triazol (Gibco). Northern blots were performed with 15 μg of total RNA according to methods well known in the art.
To determine whether or not leptin could transduce its signal in osteoblasts, serum-starved primary osteoblasts isolated from wild-type mice were treated with leptin. Primary osteoblast cultures from calvaria of newborn wild-type or db/db mice were established as previously described (Ducy et al., 1999, Genes Dev 13, 1025-1036) and maintained in mineralization medium (αMEMI 0.1 mg/mL ascorbic acid; 5 mM […]) supplemented with 10% […]. Cultures of mutant cells were maintained in this medium for 15 days before analysis. Cultures derived from wild-type mice were maintained for 10 days in this medium then the percentage of serum was reduced to 0.5% and the medium supplemented with 1.2 μg/mL leptin (Sigma) or vehicle for 5 days.
The phosphorylation of Stat3, a downstream effector of leptin signaling in its target cells (Tartaglia et al., 1995, Cell 83, 1263-1271; Baumann et al., 1996, Proc Natl Acad Sci USA 93, 8374-8378; Ghilardi et al., 1996, Proc Natl Acad Sci USA 93, 6231-6235; Vaisse et al., 1996, Nat Genet 14, 95-97), was monitored, in addition to the expression of two immediate early genes whose transcription is increased following leptin treatment of target cells (Elmquist et al., 1997, Endocrinology 138, 839-842). As a positive control oncostatin-M that induces Stat3 phosphorylation and activates the expression of the same two immediate early genes in osteoblasts (Levy et al., 1996, Endocrinology 137, 1159-1165) was utilized. Western blot analysis was performed to determine Stat3 phosphorylation as follows. Cells were lysed, protein extracts were separated on a 7.5% SDS-PAGE and blotted on nitrocellulose (Biorad) for immunoblotting assay by methods well known in the art. Analysis of Stat3 phosphorylation was performed using the PhosphoPlus Stat3 (Tyr7O5) Antibody kit (New England Biolabs) according to the manufacturer's instructions.
Finally, the effect of a long-term leptin treatment of primary osteoblast cultures from wild-type mice on extracellular matrix synthesis and bone matrix mineralization was determined. The presence of a collagen-rich extracellular matrix and of mineralization nodules was assessed by whole-mount staining of the cultures by the van Gieson and von Kossa reagent, respectively. No difference was observed when assessing collagen synthesis or mineralization nodule formation between control and leptin-treated cultures (FIG. 5E).

[6] = estradiol-treated ob/ob mice, end of treatment period
[7] = female ob/ob mice, 3-month treatment

## NC[C@H](O)c1ccc(O)c(O)c1 [norepinephrine]
[1]
  cAMP production: increased
[2]
  cAMP production: induced

## MTII
ob/ob mice [3]
  body weight: significantly decreased
  bone mass: did not affect

## CNC[C@H](O)c1cccc(O)c1 [phenylephrine]
[1]
  cAMP production: not

## CC(C)(C)NCC(O)c1ccc(O)c(CO)c1 (stereo not drawn) [salbutamol]
Ovariectomized rat
  effects in bone: Anabolic effects

## COC(=O)COc1ccc(CC(C)NCC(O)c2cccc(Cl)c2)cc1 (stereo not drawn) [BRL 35135]
Bone marrow adipocytes
  sizes of bone marrow adipocytes: reduce

## N[C@@H](CCC(=O)O)C(=O)[O-].[Na+] [MSG, monosodium glutamate]
C57BL/6J pups; newborn pups, 2 mg/g subcutaneously daily for 10 days
  ARC structures (neurons synthesizing NPY): markedly affected
C57BL/6J pups; twelve week-old MSG-treated mice
  bone mass (bone volume, histology): normal

## OC[C@@H](O)[C@@H](O)[C@H](O)[C@@H](O)C=S.[Au] [GTG, gold thioglucose]
C57BL/6J mice; 4-week-old wt mice, single ip injection 0.5 mg/g
  VMH neurons expressing SF1 (immunohistochemistry): marked perturbation
C57BL/6J mice; 12 week-old GTG-treated mice
  bone formation rate: increase
  bone mass (bone histologic analysis): HBM whose severity was nearly identical to that of ob/ob mice
C57BL/6J mice; GTG-treated mice
  urinary elimination of deoxypyridinoline (dpd) and osteoclast numbers: normal

## C[C@]12CC[C@@H]3c4ccc(O)cc4CC[C@H]3[C@@H]1CC[C@@H]2O [17 β-estradiol]
wild-type (wt) mice
  bone trabeculae (histological analysis of vertebrae): significant increase
ob/ob mice [4]; 2-month-old female ob/ob mice, subcutaneous pellets, serum 250 pg/mL, 3-month treatment
  hypogonadism, as judged by the aspect of uteri and levels of estradiol in blood: corrected their hypogonadism
ob/ob mice [4]; [6]
  increase in bone volume compared to estradiol-treated wild-type mice: 50%
  increase in bone volume compared to untreated wild-type mice: 3 fold
ob/ob mice [4]; [7]
  high bone mass phenotype compared to placebo treated ob/ob mice: further increase
  osteoclast number: normalization

B1: Oncostatin-M: positive control that induces Stat3 phosphorylation in osteoblasts (protein, UniProt P13725 26-221, looked up)
Oncostatin-M: AAIGSCSKEYRVLLGQLQKQTDLMQDTSRLLDPYIRIQGLDVPKLREHCRERPGAFPSEETLRGLGRRGFLQTLNATLGCVLHRLADLEQRLPKAQDLERSGLNIEDLEKLQMARPNILGLRNNIYCMAQLLDNSDTAEPTKAGRGASQPPTPTPASDAFQRKLEGCRFLHGYHRFMHSVGRVFSKWGESPNRSRR
[5]; primary osteoblasts, 20 min treatment
  expression of Tis11 and c-fos (Northern analysis): quickly and transiently activated
[5]; serum-starved primary osteoblasts, 20 min, leptin 80 ng/mL, Oncostatin M 40 ng/mL
  Stat3 phosphorylation (Western blot): did induce
